Experimental data taken from US4009273A, “Substituted 10,11-dihydro-5,10-imino-[5H] dibenzo (a,d)-cycloheptene” (priority 1972, dated 1977).

Assays:
[1] = Acute toxicity; details: mouse, in vivo, ip, Swiss mice, observed for a week
Description: The acute toxicity was determined on groups of Swiss mice weighing 18 to 22 g and the test products were administered intraperitoneally in increasing doses and the animals were kept under observation for a week.

[2] = tested on: reserpine ptosis of the eyelid; assay: Antidepressant activity: antagonism of reserpine eyelid ptosis; assay type: in vivo, rats; details: 1 h before 1 mg/kg reserpine
Description: The antidepressant activity was determined by antagonism exercised by the compounds against the depressant activity of reserpine and this effect was determined by ptosis of the eyelid test codified by Rubin [J. Pharm. Exp. Ther., Vol. 120 (1957), p. 125]. The eyelid ptosis test is used to make a quantitative evaluation of the condition of the animal, but the antagonism exercised equally against the neuro depressive symptoms of reserpine; immobility, adynamia, hypothermia, myosis, etc. The reading was effected every hour for 6 hours after intraperitoneal injection of 1 mg/kg of reserpine to groups of rats who had one hour previously received intraperitoneally a variable dose of the test compounds. The ptosis provoked by the reserpine injection was diminished by the previous injection of the test compounds, all the more so at the elevated doses. The results were expressed as a percentage of protection compared to controls which received only reserpine and are reported in Table IV.

[3] = tested on: DOPA; assay: Potentialization of DOPA; assay type: in vivo, mice (male); details: 1 h before 50 mg/kg DOPA
Description: In this test, DOPA [racemic β-(3,4-dihydroxyphenyl)-alanine] was administered to mice pretreated with 1-isonicotinoyl-2-isopropyl-hydrazine18 hours before the test which product caused the following symptoms: hypertonicity, agitation, crying, aggressiveness, salivation and exophthalmia. The administration of an antidepressant one hour before the DOPA injection potentializes the intensity of the effects.
Male mice weighing between 18 to 22 g received intraperitoneally 50 mg/kg of 1-isonicotinoyl-2-isopropyl-hydrazine and 18 hours later the test product intraperitoneally in aqueous solution in increasing doses and 1 hour later received an intraperitoneal injection of 50 mg/kg of DOPA. The different effects were evaluated 15 and 30 minutes after the DOPA injection and each symptom was evaluated for each animal on a scale from 0 to 3 and the evaluations for each dose was totaled. The totals are reported in Table III as a percent of the total of control animals.

[4] = tested on: amytal sleeping time; assay: Potentialization of sleeping time (amytal); assay type: in vivo, mice (female); details: 1 h before 80 mg/kg amytal i.v.
Description: The potentialization of sleeping time was determined with a test using amytal [5-ethyl-5-isoamyl-barbituric acid] in which groups of female mice weighing between 18 and 22 g were kept at 25° C for the duration of the test. The test products were administered intraperitoneally at different doses one hour before intraveinous injection of 80 mg/kg of amytal and the sleeping time was noted which is the time while the reflux of straightening in the mice was negative.

| Structure (SMILES) | LD50 at 168 h [1] [mg/kg] | % Protection ([2]; 2 mg/Kg i.p.) [%] | % Protection ([2]; 10 mg/Kg i.p.) [%] | % Protection ([2]; 20 mg/Kg i.p.) [%] | % Protection ([2]; 50 mg/Kg i.p.) [%] | total symptom score as percent of the total of control animals ([3]; 10 mg/Kg i.p.) [%] | total symptom score as percent of the total of control animals ([3]; 20 mg/Kg i.p.) [%] | total symptom score as percent of the total of control animals ([3]; 50 mg/Kg i.p.) [%] | average sleeping time ([4]; 5 mg/Kg i.p.) [min] | average sleeping time ([4]; 10 mg/Kg i.p.) [min] | average sleeping time ([4]; 20 mg/Kg i.p.) [min] | average sleeping time ([4]; 50 mg/Kg i.p.) [min] |
| --- | --- | --- | --- | --- | --- | --- | --- | --- | --- | --- | --- | --- |
| CNCCN1C2Cc3ccccc3C1c1ccccc12 (stereo not drawn) [Example 28, 12-(2'-methylaminoethyl)-10,11-dihydro-5,10-imino-[5H]-dibenzo (a,d) cycloheptene dl] | ~150 | 10 | 43 | 60 | 84 |  |  |  |  |  |  |  |
| CN(C)CCN1C2Cc3ccccc3C1c1ccccc12 (stereo not drawn) [Example 29, 12-(2'-dimethylaminoethyl)-10,11-dihydro-5,10-imino-[5H]-dibenzo (a,d) cycloheptene dl] | ~180 | 9 | 40 | 39 | 66 | 81 | 101 | 177 |  |  |  |  |
| NCCN1C2Cc3ccccc3C1c1ccccc12 (stereo not drawn) [Example 30, 12-(2'-aminoethyl)-10,11-dihydro-5,10-imino-[5H]-dibenzo (a,d) cycloheptene dl] | ~150 | 18 | 38 | 69 | 74 | 113 | 150 |  | 46.3 | 38.1 | 64.1 | 89.0 |
